Results on two molecules are retold here after article PMC7156261 (Journal of medicinal chemistry, 2019).

One data set deals with TEM-1 β-lactamase M182T (Escherichia coli, UniProt P62593, M180T). Briefly: DSF shift in Tm after incubation with moxalactam, M182T. It is filed as binding. Particulars: 100-fold molar excess moxalactam.
Data set [1] has as its target TEM-1 β-lactamase WT (native enzyme) (Escherichia coli, UniProt P62593). As to the kind of experiment: DSF shift in Tm after incubation with moxalactam, WT. The format is binding. Particulars: 100-fold molar excess moxalactam.
Data set [2] addresses TEM-1 β-lactamase M182T/G238S (Escherichia coli, UniProt P62593, G236S/M180T). As to the kind of experiment: DSF shift in Tm after incubation with moxalactam, M182T/G238S. The conditions noted are these: 100-fold molar excess moxalactam. The format is binding.
The target of a further data set is TEM-1 β-lactamase G238S (Escherichia coli, UniProt P62593, G236S). Briefly: DSF shift in Tm after incubation with moxalactam, G238S. It is filed as binding. The conditions noted are these: 100-fold molar excess moxalactam.
Another data set has as its system Sor/CR colloids. It is filed as binding. Particulars: concentration of TEM-1 mutant at which 50% of fluorescent L2gd is displaced; 100 nM 5-MF-L2gd, 20 μM Sor/CR colloids.
The nature of data set [3]: van't Hoff enthalpy of unfolding. Particulars: Table S1. It is filed as physicochemical.

With `CO[C@@]1(NC(=O)[C@H](C(=O)O)c2ccc(O)cc2)C(=O)N2C(C(=O)O)=C(CSc3nnnn3C)CO[C@@H]21` [moxalactam], the entries for the “destabilization (lowering of Tm)” value at TEM-1 β-lactamase M182T and on TEM-1 β-lactamase G238S were 4.1 °C and 1.9 °C, respectively. Further, the “lowering of Tm” value in data set [1] was 4.5 °C. For the same molecule, the “effect on Tm” value in data set [2] is listed as “no substantial effect”.

B1: WT: wild-type TEM-1 β-lactamase (protein, UniProt P62593 24-286, looked up)
Beta-lactamase TEM: HPETLVKVKDAEDQLGARVGYIELDLNSGKILESFRPEERFPMMSTFKVLLCGAVLSRVDAGQEQLGRRIHYSQNDLVEYSPVTEKHLTDGMTVRELCSAAITMSDNTAANLLLTTIGGPKELTAFLHNMGDHVTRLDRWEPELNEAIPNDERDTTMPAAMATTLRKLLTGELLTLASRQQLIDWMEADKVAGPLLRSALPAGWFIADKSGAGERGSRGIIAALGPDGKPSRIVVIYTTGSQATMDERNRQIAEIGASLIKHW
With B1, in the data set with Sor/CR colloids, a half-maximal effect (EC50) was put at 577 ± 303 µM. Moreover, in data set [3], the “van't Hoff enthalpy of unfolding” value was determined as 139.5 kcal/mol.
